Results on six molecules are retold here after patent US8445461B2, “Pharmaceutical composition for meniere's disease” (Setsuko Takeda, priority 2007, dated 2013).

Molecules are shown by their SMILES. Several values for one entry are separate records, joined by “and”; a condition that tells them apart may be missing. Equal values may be shown once. Read-outs that look alike come from different tables or passages of the source.

For data set [1], the system named is guinea pigs excreting normal feces. The data set is described as follows: Antidiarrheal effect: observation of feces after oral administration of saccharides or sugar alcohols with or without polysaccharides (Example 1). Type of data set: in vivo. As for the experimental part:
The criteria for analyzing the conditions of feces (hardness, shape and spaces of feces in the intestine) are as shown in Table 2:
The hardness and microscopic findings of feces from the group administered with distilled water were assessed as “Normal” scoring 3, the feces having normal shape and the shape could rather easily change by pushing with fingers were assessed as “Slightly soft” scoring 2, those of which the shape had already changed or it could quite easily change by pushed with fingers were assessed as “Soft” scoring 1, and those of which the shape is muddy or watery or of no shape were assessed “Muddy” scoring 0. To be precese, there are no watery feces because of the nature of diets and thus the muddy feces correspond to watery and muddy feces in human.
Since the muddy feces comprise large content of water, they induce the high abdominal pressure and the flatulence and distension. […] In the case of gas generation, it appears that noxious symptom such as the flatulence and distension are synergistically deteriorated. Therefore, we assessed not only based on the hardness of feces, but also the size, smoothness of the surface and amount of feces.
In these experiments, I observed is the diarrhea caused by saccharides or sugar alcohols and antidiarrhreal effect of saccharides. Guinea pigs orally received saccharides or sugar alcohols, for example tetrose such as erythritol, pentose such as xylitol or xylose, hexose such as isosorbitol or the like in combination with or without polysaccharides for observation of the feces up to 6 hours after the administration.
Guinea pigs (body weight 280 to 320 g, normal feces) were divided into four groups: for Group 1-a, xylitol alone (Reference Example 1), or xylitol and xanthan gum or pectin; for Group 1-b, xylose alone (Reference Example 2), xylose and xanthan gum or pectin; for Group 1-c, erythritol alone (Reference Example 3), erythritol and pectin, erythritol and xanthan gum, or erythritol, pectin and natural aluminum silicate gel or calcium carbonate; and for Group 1-d, isosorbitol alone (Reference Example 4), or isosorbitol and xanthan gum or pectin were orally administered, respectively. The compounds are dissolved in distilled water and 8 ml/kg of said solution were administered as a single dose.
The feces were observed during 6 hours after the administration. When the animals fell into the most serious condition, the hardness and shape of the feces from said animals were assessed as the effect by saccharides or sugar alcohols in the animals.

Data set [2] has as its system experimental endolymphatic hydrops. The data set is described as follows: Endolymphatic hydrops decompression effect: IR-L, IR-S and regression lines in the operated ear. Type of data set: in vivo, guinea pigs. The note with it: active agent 2.8 g/kg oral, alone or with additive; for Regression line IR-S vs IR-L: Y-intercept / Regression line IR-S vs IR-L: slope: operated ears, 3 hours after; for IR-L (%) increase ratio of the length of Reissner's membrane / IR-S (%) increase ratio of the cross-sectional area of the scala media: operated side, perfusion 3 hours after. The protocol: The endolymphatic hydrops-decompression effect of saccharides or sugar alcohols was evaluated by assaying as below in triplicate. Firstly, guinea pigs received the surgical obliteration of the endolymphatic sac in the left ear to prepare “experimental model animals with endolymphatic hydrops”. The surgical obliteration of the endolymphatic sac was carried out by burning the extraskeletal portion in the endolymphatic sac with a bipolar electrocoagulator. An endolymphatic sac plays an important role in the absorption of endolymphatic fluid. The inhibition of absorption of endolymphatic fluid was caused by burning the endolymphatic sac to prepare an experimental endolymphatic hydrops. Those hydrops are progressively formed. The size of hydrops becomes constant 2 weeks to month after the surgery and maintained for several months. In detail, see Non-patent Reference 8 for the surgery.
After 1 month, they were divided into 3 groups: Group 2-1 (groups 1-6), 60 animals; Group 2-2 (groups 7-10), 40 animals; and Group 2-3 (groups 11-20), […]. The animals in Group 2-1 received saccharides or sugar alcohols alone (Reference Example 5). The animals in Group 2-2 orally received saccharides or sugar alcohols added polysaccharides. The animals in Group 2-3 received other combinations of saccharides or sugar alcohols added polysaccharides. Animals were sacrificed after the oral administration and the observation and the assessment the gastrointestinal condition, and observed the morphological change of the cochlea mainly in the operated side (left side), in particular of the endolymphatic hydrops decompression effect.
I were obtained left sides of the temporal bones immediately following fixation and kept them in 10% formalin solution for 10 days or more. They were decalcified with 5% trichloroacetic acid and dehydrated with alcohol in increasing concentration, then embedded in paraffin and celloidin. The prepared blocks were cut serially in the horizontal plane. The mid-modiolar sections were stained in hematoxylin and eosin and studied under a light microscope. For the quantitative assessment of changes of the endolymphatic space, the change ratios of the length of Reissner's membrane and the cross-sectional area of the scala media in each turn were measured from the mid-modiolar sections of the cochlea.
From these parameters, the increase ratios (%) of the length of Reissner's membrane (IR-L) and the cross-sectional area (%) of the scala media (IR-S) of a total of four turns were calculated according to the equation as described below:
The increase ratio of the length of Reissner's membrane (IR-L)=100×Σ(Lx−L*x)/ΣL*x (x: first, second, third and fourth turns)
The increase ratio of the cross-section area of the scala media (IR-S)=100×Σ(Sx−S*x)/ΣS*x (x: first, second, third and fourth turns)
Since almost no difference is shown in the regression lines of each group, it cannot be understood that there is the decompression effect of erythritol alone. When endolymphatic hydrops is formed, the cross-sectional area of scala media and the length of Reissner's membrane will increase. It can be assumed from FIG. 1 that there is statistically a primary correlation between both of them in the operated side in the control group. The regression lines are; IR-S (distilled water)=4.011+1.212*IR-L (distilled water); R2=0.987, IR-S (1 hour after)=5.409+1.1*IR-L (1 hour after); R2=0.903, IR-S (2 hours after)=1.125+0.992*IR-L (2 hours after); R2=0.98, IR-S (3 hours after)=2.407+1.309*IR-L (3 hours after); R2=0.974, IR-S (6 hours after)=7.36+1.147*IR-L (6 hours after); R2=0.895, IR-S (12 hours after)=8.089+1.152*IR-L (12 hours after); R2=0.918.
The difference of decompression effect on endolymphatic hydrops depending on dose of pectin added and time-course of the decompression effect can hardly determined by comparing and analyzing the average and standard deviation of IR-L and IR-S in the operated side in each groups. […]

Data set [3] deals with guinea pigs of normal Prayer's reflex. The note with it: cited from earlier work; for Plasma AVP: continuous subcutaneous administration.
Data set [4] deals with endolymphatic space. The note with it: cited from earlier work; for Morphological change in the normal ear: glycerol 2.8 g/kg oral.
Where [5] appears, read: saccharide or sugar alcohol 2.8 g/kg oral, alone or with additive, feces observed for 6 hours.
Where [6] appears, read: active agent 2.8 g/kg oral, alone or with additive of the label.
[7] abbreviates: active agent 2.8 g/kg oral, alone or with additives of the label, most serious condition within 6 hours.
[8] abbreviates: active agent 1.4 g/kg oral, within 6 hours.
Where [9] appears, read: active agent 2.1 g/kg oral, within 6 hours.

Take `OC[C@@H](O)[C@@H](O)[C@H](O)[C@@H](O)CO` [Sorbitol, sorbitol]: in data set [1] (setting [5]), the “Hardness of feces 0 (Muddy): number of animals” value is 2 and 3; the “Hardness of feces 1 (Soft): number of animals” value was 2; the “Hardness of feces 3 (Normal): number of animals” value was 0.

As for `OC[C@@H](O)[C@@H](O)[C@H](O)[C@H](O)CO` [mannitol], in data set [1] (setting [5]), the “Hardness of feces 0 (Muddy): number of animals” value stood at 1, the “Hardness of feces 1 (Soft): number of animals” value is on record as 2, the “Hardness of feces 2 (Slightly soft): number of animals” value turned out to be 1 and the “Hardness of feces 3 (Normal): number of animals” value amounted to 0.

With `O=C[C@H](O)[C@@H](O)[C@H](O)CO` [Xylose, xylose], in data set [2], the “Regression line IR-S vs IR-L: Y-intercept” value worked out at 1.197, the “Regression line IR-S vs IR-L: slope” value stood at 1.364, the “IR-L (%) increase ratio of the length of Reissner's membrane” value (“IR-L (%) increase ratio” for short) was 29.7 ± 21.3% and the “IR-S (%) increase ratio of the cross-sectional area of the scala media” value (from here on “IR-S (%) increase ratio”) is reported as 41.7 ± 30.1%. Moreover, the “Abdominal distension / gas by inspections and palpations” value in data set [1] (setting [6]) was “mild or moderate flatulence and distension”. Also, in data set [1] (setting [7]), the “Hardness of feces: Muddy (number of animals)” value (from here on “Hardness of feces: Muddy”) was found to be 1, the “Hardness of feces: Normal (number of animals)” value (“Hardness of feces: Normal” below) is on record as 0, the “Hardness of feces: Slightly soft (number of animals)” value (“Hardness of feces: Slightly soft” below) was 1 and the “Hardness of feces: Soft (number of animals)” value (shortened to “Hardness of feces: Soft”) was 3.

With `NC(=O)CC[C@@H]1NC(=O)[C@H](Cc2ccccc2)NC(=O)[C@H](Cc2ccc(O)cc2)NC(=O)[C@@H](N)CSSC[C@@H](C(=O)N2CCC[C@H]2C(=O)N[C@@H](CCCN=C(N)N)C(=O)NCC(N)=O)NC(=O)[C@H](CC(N)=O)NC1=O` [AVP, arginine vasopressin], the “Plasma AVP” value in data set [3] (AVP 0.2 mU/kg/min) is 2.2 ± 0.4 pg/mL; in data set [3] (AVP 0.4 mU/kg/min), 3.5 ± 1.8 pg/mL; in data set [3] (AVP 1.0 mU/kg/min), 14.0 ± 3.9 pg/mL. For the same molecule, the “Increase ratio (%) of the cross-sectional area of the scala media” value in data set [3] (AVP 0.2 mU/kg/min) is on record as 4.4 ± 0.7%; in data set [3] (AVP 0.4 mU/kg/min), 10.4 ± 1.8%; in data set [3] (AVP 1.0 mU/kg/min) it was 17.4 ± 7.9%. The “Formation of endolymphatic hydrops” value in data set [3] (AVP 1 mU/kg/minute, continuous, mini-pump subcutaneously) was “apparently produced endolymphatic hydrops”.

On to `OCC(O)CO` [Gly alone, glycerol], for which, in data set [2], the “Regression line IR-S vs IR-L: Y-intercept” value is −2.455, the “Regression line IR-S vs IR-L: slope” value is 0.887, the “IR-L (%) increase ratio” value turned out to be 37.4 ± 31.2% and the “IR-S (%) increase ratio” value turned out to be 31.0 ± 27.5%. Besides, the “Morphological change in the normal ear” value in data set [4] (2 hours after) is “collapse”. Moreover, the “Morphological change in the normal ear” value in data set [4] (6 hours after) is “mild hydrops”. In addition, the “Time until exertion of effect after the oral administration” value in data set [4] (oral) is on record as “about 2 hours”.

`OC[C@@H](O)[C@H](O)[C@@H](O)CO` [Xylitol, xylitol]: in data set [2], the “Regression line IR-S vs IR-L: Y-intercept” value is reported as 2.371, the “Regression line IR-S vs IR-L: slope” value is 1.208, the “IR-L (%) increase ratio” value is reported as 48.6 ± 40.3% and the “IR-S (%) increase ratio” value turned out to be 60.1 ± 48.9%. Besides, in data set [1] (setting [8]), the “Hardness of feces: Muddy” value is 0, the “Hardness of feces: Normal” value stood at 5, the “Hardness of feces: Slightly soft” value is 0 and the “Hardness of feces: Soft” value is on record as 0. For the same molecule, in data set [1] (setting [9]), the “Hardness of feces: Muddy” value is 0, the “Hardness of feces: Normal” value was 4, the “Hardness of feces: Slightly soft” value turned out to be 1 and the “Hardness of feces: Soft” value is reported as 0. In addition, in data set [1] (setting [6]), the “Time after administration of the peak (most serious) diarrhea” value is listed as “Three to four hours after the administration”, the “Time after administration when diarrhea / softening of feces started” value worked out at 2 h and the “Time after administration when feces recovered to (almost) normal” value worked out at 6 h. For the same molecule, in data set [1] (setting [7]), the “Hardness of feces: Muddy” value came to 3, the “Hardness of feces: Normal” value came to 0, the “Hardness of feces: Slightly soft” value was 1 and the “Hardness of feces: Soft” value is listed as 1.
